Results: patent US20240158446A1, “CYCLIC COMPOUND HAVING SELECTIVE INHIBITORY ACTION ON KRAS OVER HRAS AND NRAS” (CHUGAI SEIYAKU KABUSHIKI KAISHA, priority 2021, published 2024)

How the values were obtained:
[1] = biological target: GDP-bound NRAS wild-type protein (Homo sapiens, UniProt P01111); assay: Binding to NRAS by surface plasmon resonance (SPR), Single Cycle Kinetics; conditions: for NRAS/KRAS (ratio of KD value for NRAS to KD value for KRAS) / NRAS/KRAS (ratio of KD value with respect to NRAS to KD value with respect to KRAS): SPR, GDP-bound NRAS wild-type protein vs GDP-bound KRAS wild-type protein; for NRAS/KRAS (ratio of KD value with respect to GDP-bound NRAS wild-type protein to KD value with respect to KRAS): SPR KD ratio NRAS/KRAS, class symbols
[2] = biological target: GDP-bound HRAS wild-type protein (Homo sapiens, UniProt P01112); assay: Binding to HRAS by surface plasmon resonance (SPR), Single Cycle Kinetics; conditions: for HRAS/KRAS (ratio of KD value for HRAS to KD value for KRAS) / HRAS/KRAS (ratio of KD value with respect to HRAS to KD value with respect to KRAS): SPR, GDP-bound HRAS wild-type protein vs GDP-bound KRAS wild-type protein; for HRAS/KRAS (ratio of KD value with respect to GDP-bound HRAS wild-type protein to KD value with respect to KRAS): SPR KD ratio HRAS/KRAS, class symbols
Sequence of GDP-bound HRAS wild-type protein (P01112 whole entry): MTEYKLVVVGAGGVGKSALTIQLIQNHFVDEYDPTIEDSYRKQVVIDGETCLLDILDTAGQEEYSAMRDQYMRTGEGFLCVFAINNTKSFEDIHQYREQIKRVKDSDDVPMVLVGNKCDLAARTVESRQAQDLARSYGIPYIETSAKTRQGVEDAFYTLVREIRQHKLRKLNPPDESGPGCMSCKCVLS

Sequence of GDP-bound NRAS wild-type protein (P01111 whole entry): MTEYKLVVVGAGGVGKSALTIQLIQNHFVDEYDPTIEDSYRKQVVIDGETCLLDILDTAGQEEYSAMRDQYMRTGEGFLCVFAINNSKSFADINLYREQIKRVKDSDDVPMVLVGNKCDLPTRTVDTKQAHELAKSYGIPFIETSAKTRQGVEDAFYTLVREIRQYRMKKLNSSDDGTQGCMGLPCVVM

Compound | NRAS/KRAS (ratio of KD value for NRAS to KD value for KRAS) [1] | HRAS/KRAS (ratio of KD value for HRAS to KD value for KRAS) [2] | NRAS/KRAS (ratio of KD value with respect to GDP-bound NRAS wild-type protein to KD value with respect to KRAS) [1] | HRAS/KRAS (ratio of KD value with respect to GDP-bound HRAS wild-type protein to KD value with respect to KRAS) [2] | also measured
CCC[C@H]1C(=O)N[C@@H](C2CCCC2)C(=O)N(C)CC(=O)N(C)[C@H]2C/C=C\CCN(C2=O)[C@@H](Cc2ccc(C)cc2)C(=O)N(C)CC(=O)N[C@@H](CCc2ccc(C(F)(F)F)c(OC)c2)C(=O)N2CC3(CC3)C[C@H]2C(=O)NC2(CC(C)(C)C2)C(=O)N(C)[C@@H](C2CCCC2)C(=O)N(C)[C@H](C(=O)N(C)C)CC(=O)N1C [PP2994] | AA (a compound having 20 or more is denoted as AA) | A (a compound having 10 or more and less than 20 is denoted as A) | – | – | –
CC[C@H](C)[C@@H]1NC(=O)[C@H](CC(C)C)N(C)C(=O)C[C@@H](C(=O)N2CCOCC2)N(C)C(=O)[C@H](C2CCC2)N(C)C(=O)C2(CCCC2)NC(=O)[C@@H]2CCCN2C(=O)[C@H](CCc2cc(F)c(C(F)(F)F)c(F)c2)NC(=O)CN(C)C(=O)[C@H](Cc2ccc(C(F)(F)F)cc2)N2CCCCC[C@@H](C2=O)N(C)C(=O)CN(C)C1=O [PP0504] | – | – | – | – | NRAS/KRAS (ratio of KD value with respect to NRAS to KD value with respect to KRAS) [1]: B (a compound having 3 or more and less than 10 is denoted as B); HRAS/KRAS (ratio of KD value with respect to HRAS to KD value with respect to KRAS) [2]: B (a compound having 3 or more and less than 10 is denoted as B)
CCO[C@@H]1C[C@H]2C(=O)NC3(CC(C)(C)C3)C(=O)N(C)[C@@H](C3CCCC3)C(=O)N(C)[C@H](C(=O)N(C)C)CC(=O)N(C)[C@@H](CC3CCCC3)C(=O)N[C@@H]([C@@H](C)CC)C(=O)N(C)CC(=O)N(C)[C@H]3C/C=C\CCN(C3=O)[C@@H](Cc3ccc(C(F)(F)F)cc3)C(=O)N(C)CC(=O)N[C@@H](CCc3ccc(C(F)(F)F)c(OC)c3)C(=O)N2C1 [PP1565] | – | – | – | – | NRAS/KRAS (ratio of KD value for NRAS to KD value for KRAS) ([1]; KD ratio class): A (a compound having 10 or more and less than 20 is denoted as A); HRAS/KRAS (ratio of KD value for HRAS to KD value for KRAS) ([2]; KD ratio class): B (a compound having 3 or more and less than 10 is denoted as B)
CCO[C@@H]1C[C@H]2C(=O)NC3(CCC3)C(=O)N(C)[C@@H](C3CCCC3)C(=O)N(C)[C@H](C(=O)N3CCOCC3)CC(=O)N(C)[C@@H](CC3CCCC3)C(=O)N[C@@H]([C@@H](C)CC)C(=O)N(C)CC(=O)N(C)[C@H]3CCCCCN(C3=O)[C@@H](Cc3ccc(C(F)(F)F)cc3)C(=O)N(C)CC(=O)N[C@@H](CCc3cc(F)c(C(F)(F)F)c(F)c3)C(=O)N2C1 [PP0685] | – | – | – | – | NRAS/KRAS (ratio of KD value with respect to NRAS to KD value with respect to KRAS) [1]: B (a compound having 3 or more and less than 10 is denoted as B); HRAS/KRAS (ratio of KD value with respect to HRAS to KD value with respect to KRAS) [2]: B (a compound having 3 or more and less than 10 is denoted as B)
CCO[C@@H]1C[C@H]2C(=O)NC3(CC(C)(C)C3)C(=O)N(C)[C@@H](C3CCCC3)C(=O)N(C)[C@H](C(=O)N(C)C)CC(=O)N(C)[C@@H](CC(C)C)C(=O)N[C@@H]([C@@H](C)CC)C(=O)N(C)CC(=O)N(C)[C@H]3C/C=C\CCN(C3=O)[C@@H](Cc3ccc(C(C)=O)cc3)C(=O)N(C)CC(=O)N[C@@H](CCc3ccc(C(F)(F)F)c(OC)c3)C(=O)N2C1 [PP2694] | – | – | A (a compound having 10 or more and less than 20 is denoted as A) | B (a compound having 3 or more and less than 10 is denoted as B) | –
CCC[C@H]1C(=O)N[C@@H]([C@@H](C)CC)C(=O)N(C2CC2)CC(=O)N(C)[C@H]2C/C=C\CCN(C2=O)[C@@H](Cc2ccc(C)cc2)C(=O)N(C)CC(=O)N[C@@H](CCc2cc(F)c3c(c2)CCC3)C(=O)N2C[C@H](OCC)C[C@H]2C(=O)NC2(CC(C)(C)C2)C(=O)N(C)[C@@H](C2CCCC2)C(=O)N(C)[C@H](C(=O)N(C)C)CC(=O)N1C [PP2879] | – | – | A (a compound having 10 or more and less than 20 is denoted as A) | A (a compound having 10 or more and less than 20 is denoted as A) | –
CC[C@H](C)[C@@H]1NC(=O)[C@H](CC2CC2)N(C)C(=O)C[C@@H](C(=O)N(C)CC)N(C)C(=O)[C@H](C2CCCC2)N(C)C(=O)C2(CC(C)(C)C2)NC(=O)[C@@H]2C[C@@H](F)CN2C(=O)[C@H](CCc2cc(F)c(C(F)(F)F)c(F)c2)NC(=O)CN(C)C(=O)[C@H](Cc2ccc(C)cc2)N2CC/C=C\C[C@@H](C2=O)N(C)C(=O)CN(C)C1=O [PP2802] | – | – | AA (a compound having 20 or more is denoted as AA) | A (a compound having 10 or more and less than 20 is denoted as A) | –
CCC[C@H]1C(=O)N[C@@H]([C@@H](C)CC)C(=O)N(C2CC2)CC(=O)N(C)[C@H]2C/C=C\CCN(C2=O)[C@@H](Cc2ccc(C)cc2)C(=O)N(C)CC(=O)N[C@@H](CCc2ccc(Cl)c(Cl)c2)C(=O)N2C[C@H](OCC)C[C@H]2C(=O)NC2(CC(C)(C)C2)C(=O)N(C)[C@@H](CC2CC2)C(=O)N(C)[C@H](C(=O)N(C)C)CC(=O)N1C [PP2805] | – | – | A (a compound having 10 or more and less than 20 is denoted as A) | A (a compound having 10 or more and less than 20 is denoted as A) | –
CCC[C@H]1C(=O)N[C@@H]([C@@H](C)CC)C(=O)N(C)CC(=O)N(C)[C@H]2C/C=C\CCN(C2=O)[C@@H](Cc2ccc(C(F)(F)F)cc2)C(=O)N(C)CC(=O)N[C@@H](CCc2ccc(C(F)(F)F)c(Cl)c2)C(=O)N2CC3(CC3)C[C@H]2C(=O)NC2(CC(C)(C)C2)C(=O)N(C)[C@@H](CC(F)(F)F)C(=O)N(C)[C@H](C(=O)N(C)C)CC(=O)N1C [PP2985] | AA (a compound having 20 or more is denoted as AA) | A (a compound having 10 or more and less than 20 is denoted as A) | – | – | –
CCO[C@@H]1C[C@H]2C(=O)NC3(CCC3)C(=O)N(C)[C@@H](C3CCCC3)C(=O)N(C)[C@H](C(=O)N(C)CC)CC(=O)N(C)[C@@H](CC3CCC3)C(=O)N[C@@H]([C@@H](C)CC)C(=O)N(C)CC(=O)N(C)[C@H]3C/C=C\CCN(C3=O)[C@@H](Cc3ccc(C(F)(F)F)cc3)C(=O)N(C)CC(=O)N[C@@H](CCc3ccc(Cl)c(Cl)c3)C(=O)N2C1 [PP2824] | – | – | A (a compound having 10 or more and less than 20 is denoted as A) | A (a compound having 10 or more and less than 20 is denoted as A) | –
CCCOC[C@H]1C(=O)N[C@@H]([C@@H](C)CC)C(=O)N(C2CC2)CC(=O)N(C)[C@H]2C/C=C\CCN(C2=O)[C@@H](CC2CCC(F)(F)CC2)C(=O)N(C)CC(=O)N[C@@H](CCc2ccc(C(F)(F)F)c(OC)c2)C(=O)N2C[C@H](OCC)C[C@H]2C(=O)N(C)C2(CCC2)C(=O)N(C)[C@@H](C2CCCC2)C(=O)N(C)[C@H](C(=O)N(C)C)CC(=O)N1C [PP2354] | A (a compound having 10 or more and less than 20 is denoted as A) | A (a compound having 10 or more and less than 20 is denoted as A) | – | – | –
CCC[C@@H]1C[C@H]2C(=O)NC3(CC(C)(C)C3)C(=O)N(C)[C@@H](C3CCCC3)C(=O)N(C)[C@H](C(=O)N(C)C)CC(=O)N(C)[C@@H](CCC)C(=O)N[C@@H]([C@@H](C)CC)C(=O)N(C)CC(=O)N(C)[C@H]3C/C=C\CCN(C3=O)[C@@H](Cc3ccc(C)cc3)C(=O)N(C)CC(=O)N[C@@H](CCc3ccc(C(F)(F)F)c(Cl)c3)C(=O)N2C1 [PP2214] | A (a compound having 10 or more and less than 20 is denoted as A) | A (a compound having 10 or more and less than 20 is denoted as A) | – | – | –
CCO[C@@H]1C[C@H]2C(=O)NC3(CCC3)C(=O)N(C)[C@@H](C3CCCC3)C(=O)N(C)[C@H](C(=O)N3CCOCC3)CC(=O)N(C)[C@@H](CC(C)C)C(=O)N[C@@H](C3CC(F)(F)C3)C(=O)N(C)CC(=O)N(C)[C@H]3CCCCCN(C3=O)[C@@H](Cc3ccc(C(F)(F)F)cc3)C(=O)N(C)CC(=O)N[C@@H](CCc3cc(F)c(C(F)(F)F)c(F)c3)C(=O)N2C1 [PP0816] | A (a compound having 10 or more and less than 20 is denoted as A) | B (a compound having 3 or more and less than 10 is denoted as B) | – | – | –
CC[C@H](C)[C@@H]1NC(=O)[C@H](CC(C)C)N(C)C(=O)C[C@@H](C(=O)N2CCOCC2)N(C)C(=O)[C@H](C2CCCC2)N(C)C(=O)C2(COC2)NC(=O)[C@@H]2CCCN2C(=O)[C@H](CCc2cc(F)c(C(F)(F)F)c(F)c2)NC(=O)CN(C)C(=O)[C@H](Cc2ccc(C(F)(F)F)cc2)N2CCCCC[C@@H](C2=O)N(C)C(=O)CN(C)C1=O [PP0501] | – | – | – | – | NRAS/KRAS (ratio of KD value with respect to NRAS to KD value with respect to KRAS) [1]: B (a compound having 3 or more and less than 10 is denoted as B); HRAS/KRAS (ratio of KD value with respect to HRAS to KD value with respect to KRAS) [2]: B (a compound having 3 or more and less than 10 is denoted as B)
CCO[C@@H]1C[C@H]2C(=O)NC3(CC(C)(C)C3)C(=O)N(C)[C@@H](C(CC)CC)C(=O)N(C)[C@H](C(=O)N(C)C)CC(=O)N(C)[C@H]3CC/C=C/c4ccc(cc4)C[C@@H](C(=O)N(C)CC(=O)N[C@@H](CCc4cc(F)c(C(F)(F)F)c(F)c4)C(=O)N2C1)N1CC/C=C\C[C@@H](C1=O)N(C)C(=O)CN(C)C(=O)[C@H]([C@@H](C)CC)NC3=O [PP2586] | – | – | A (a compound having 10 or more and less than 20 is denoted as A) | B (a compound having 3 or more and less than 10 is denoted as B) | –
CCOC[C@H]1C(=O)N[C@@H]([C@@H](C)CC)C(=O)N(C)CC(=O)N(C)[C@H]2C/C=C\CCN(C2=O)[C@@H](Cc2ccc(OC)cc2)C(=O)N(C)CC(=O)N[C@@H](CCc2ccc(C(F)(F)F)c(OC)c2)C(=O)N2C[C@@H](C)C[C@H]2C(=O)NC2(CC(C)(C)C2)C(=O)N(C)[C@@H](C2CCCC2)C(=O)N(C)[C@H](C(=O)N(C)CC)CC(=O)N1C [PP2702] | – | – | A (a compound having 10 or more and less than 20 is denoted as A) | B (a compound having 3 or more and less than 10 is denoted as B) | –
